Data published in patent US20140275063A1, “NEW ENZYME INHIBITOR COMPOUNDS” (PROXIMAGEN LIMITED, priority 2011, published 2014).
pIC50: −log10 of the molar value. Counter-ions that a name gives are not always drawn.

Molecular target: T1, human SSAO (Homo sapiens, UniProt Q16853)
T1 construct: made in house
T1 sequence (Q16853 29-763 limits assumed): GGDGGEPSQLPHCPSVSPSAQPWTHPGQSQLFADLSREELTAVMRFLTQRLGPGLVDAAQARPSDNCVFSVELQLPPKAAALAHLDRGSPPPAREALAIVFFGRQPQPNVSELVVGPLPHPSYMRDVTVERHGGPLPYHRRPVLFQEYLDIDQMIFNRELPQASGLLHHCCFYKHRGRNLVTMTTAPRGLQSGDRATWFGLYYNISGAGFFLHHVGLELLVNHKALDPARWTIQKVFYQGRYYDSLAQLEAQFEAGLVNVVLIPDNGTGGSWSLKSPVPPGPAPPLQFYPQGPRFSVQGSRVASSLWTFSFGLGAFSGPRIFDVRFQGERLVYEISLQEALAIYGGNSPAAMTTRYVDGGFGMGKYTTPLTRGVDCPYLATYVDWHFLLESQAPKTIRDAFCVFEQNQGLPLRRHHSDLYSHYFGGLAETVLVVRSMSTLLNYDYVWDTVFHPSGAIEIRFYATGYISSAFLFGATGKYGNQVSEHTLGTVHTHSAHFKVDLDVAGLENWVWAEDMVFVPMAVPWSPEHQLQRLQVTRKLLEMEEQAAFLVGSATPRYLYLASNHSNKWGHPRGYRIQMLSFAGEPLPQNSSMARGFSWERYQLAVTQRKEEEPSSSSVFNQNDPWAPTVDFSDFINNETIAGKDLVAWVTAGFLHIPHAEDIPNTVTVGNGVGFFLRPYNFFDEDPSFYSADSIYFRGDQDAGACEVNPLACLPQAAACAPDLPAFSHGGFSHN
Assay: SSAO inhibitory activity (HRP-coupled hydrogen peroxide detection or 14C-benzaldehyde detection, benzylamine substrate)
Assay type: biochemical
Settings: purified recombinantly expressed human SSAO, benzylamine as substrate, RT
Description: All primary assays were performed at RT. with purified recombinantly expressed human SSAO. Enzyme was prepared essentially as described in Öhman et al. (Protein Expression and Purification 46 (2006) 321-331). In addition, secondary- and selectivity assays were performed using SSAO prepared from various tissues or purified rat recombinant SSAO. The enzyme activity was assayed with benzylamine as substrate by measuring either benzaldehyde production, using ^14C-labeled substrate, or by utilizing the production of hydrogen peroxide in a horseradish peroxidase (HRP) coupled reaction. Briefly, test compounds were dissolved in dimethyl sulfoxide (DMSO) to a concentration of 10 mM. Dose-response measurements were assayed by either creating 1:10 serial dilutions in DMSO to produce a 7 point curve or by making 1:3 serial dilutions in DMSO to produce 11 point curves. The top concentrations were adjusted depending on the potency of the compounds and subsequent dilution in reaction buffer yielded a final DMSO concentration ≦2%.
In a horseradish peroxidase (HRP) coupled reaction, hydrogen peroxide oxidation of 10-acetyl-3,7-dihydroxyphenoxazine produced resorufin, which is a highly fluorescent compound (Zhout and Panchuk-Voloshina. Analytical Biochemistry 253 (1997) 169-174; Amplex® Red Hydrogen Peroxideperoxidase Assay kit, Invitrogen A22188). Enzyme and compounds in 50 mM sodium phosphate, pH 7.4 were set to pre-incubate in flat-bottomed microtiter plates for approximately 15 minutes before initiating the reaction by addition of a mixture of HRP, benzylamine and Amplex reagent. Benzylamine concentration was fixed at a concentration corresponding to the Michaelis constant, determined using standard procedures. Fluorescence intensity was then measured at several time points during 1-2 hours, exciting at 544 nm and reading the emission at 590 nm. For the human SSAO assay final concentrations of the reagents in the assay wells were: SSAO enzyme 1 μg/ml, benzylamine 100 μM, Amplex reagent 20 μM, HRP 0.1 U/mL and varying concentrations of test compound. The inhibition was measured as % decrease of the signal compared to a control without inhibitor (only diluted DMSO). The background signal from a sample containing no SSAO enzyme was subtracted from all data points. Data was fitted to a four parameter logistic model and IC50 values were calculated using the Graph Pad Prism 4 or XLfit 4 programs.
SSAO activity was assayed using 14C-labeled benzylamine and analysed by measuring radioactive benzaldehyde. In a white 96-well optiplate (Packard), 20 μL of diluted test compound was pre-incubated at RT. with 20 μL SSAO enzyme for approximately 15 minutes with continuous agitation. All dilutions were made with PBS. The reaction was initiated by adding 20 μL of the benzylamine substrate solution containing [7-14C] Benzylamine hydrochloride (CFA589, GE Healthcare). The plate was incubated for 1 hour as above after which the reaction was stopped by acidification (10 μL 1 M HCl). Then 90 μL Micro Scint-E solution (Perkin-Elmer) was added to each well and the plate was continuously mixed for 15 minutes. Phase separation occurred instantly and activity was read in a Topcount scintillation counter (Perkin-Elmer). In the final reaction well, the human recombinant SSAO concentration was 10 μg/ml. In order to optimize sensitivity, the substrate concentration was decreased as compared to the HRP coupled assay in order to get a higher fraction of radioactive product. In the human SSAO assay, benzylamine concentration was 40 μM (0.2 μCi/mL). Data was analysed as above.

Question: With `COCCN1CCC(CNC(=O)N2CCC(c3cn(-c4ccc(Cl)cc4)c4cnccc34)CC2)CC1` [Compound 28, 4-[1-(4-Chlorophenyl)-1H-pyrrolo[2,3-c]pyridin-3-yl]-N-{[1-(2-methoxyethyl)piperidin-4-yl]methyl}piperidine-1-carboxamide; formic acid] as the compound, how does the pIC50 read?
Answer: The pIC50 was > 7.00.

Question: How did the pIC50 turn out when `CNC(=O)NCC1CN(c2nn(-c3ccc(Cl)cc3)c3cnccc23)CCO1` (stereo not drawn) [Compound 60, 1-({4-[1-(4-Chlorophenyl)-1H-pyrazolo[3,4-c]pyridin-3-yl]morpholin-2-yl}methyl)-3-methylurea] was run?
Answer: The pIC50 was > 7.00.

Question: `CN1CCC(CNC(=O)C2CCCCN2c2nn(-c3ccc(Cl)cc3)c3cnccc23)CC1` (stereo not drawn) [Compound 43, 1-[1-(4-Chlorophenyl)-1H-pyrazolo[3,4-c]pyridin-3-yl]-N-[(1-methylpiperidin-4-yl)methyl]piperidine-2-carboxamide] was tested. Which pIC50 did it give?
Answer: The pIC50 was 6.30 to 7.00.

Question: How did the pIC50 turn out when `NCCNC(=O)CC1COCCN1c1nn(-c2ccc(Cl)cc2)c2cnccc12` (stereo not drawn) [Compound 54, N-(2-Aminoethyl)-2-{4-[1-(4-chlorophenyl)-1H-pyrazolo[3,4-c]pyridin-3-yl]morpholin-3-yl}acetamide dihydrochloride] was run?
Answer: Its pIC50 is > 7.00.

Question: `Cc1ccc(-n2nc(N3CCOC(CNC(=O)NC4CC4)C3)c3ccncc32)cc1` (stereo not drawn) [Compound 31, 3-Cyclopropyl-1-({4-[1-(4-methylphenyl)-1H-pyrazolo[3,4-c]pyridin-3-yl]morpholin-2-yl}methyl)urea] was tested. Which pIC50 did it give?
Answer: The pIC50 was > 7.00.

Question: `Clc1ccc(-n2nc(N3CCC(CN4CCNCC4)CC3)c3ccncc32)cc1` [Compound 49, 1-({1-[1-(4-Chlorophenyl)-1H-pyrazolo[3,4-c]pyridin-3-yl]piperidin-4-yl}methyl)piperazine] was tested. Which pIC50 did it give?
Answer: The pIC50 was 6.30 to 7.00.

Question: `Cc1ccc(-n2nc(N3CCOC(CNC(=O)OC(C)C)C3)c3ccncc32)cc1` (stereo not drawn) [Compound 30, Propan-2-yl N-({4-[1-(4-methylphenyl)-1H-pyrazolo[3,4-c]pyridin-3-yl]morpholin-2-yl}methyl)carbamate] was tested. Which pIC50 did it give?
Answer: The pIC50 was > 7.00.

Question: `O=C(N1CCC(c2cn(-c3ccc(Cl)cc3)c3cnccc23)CC1)N1CCN(C2CC2)CC1` [Compound 16, 1-({4-[1-(4-Chlorophenyl)-1H-pyrrolo[2,3-c]pyridin-3-yl]piperidin-1-yl}carbonyl)-4-cyclopropyl-piperazine] was tested. Which pIC50 did it give?
Answer: The pIC50 was > 7.00.

Question: `O=C(NCC1CNCCO1)N1CCC(c2cn(-c3ccc(Cl)cc3)c3cnccc23)CC1` (stereo not drawn) [Compound 20, 4-[1-(4-Chlorophenyl)-1H-pyrrolo[2,3-c]pyridin-3-yl]-N-(morpholin-2-ylmethyl) pipendine-1-carboxamide] was tested. Which pIC50 did it give?
Answer: The pIC50 was > 7.00.

Question: `Cc1ccc(-n2nc(N3CCOC(CN4CCOCC4)C3)c3ccncc32)cc1` (stereo not drawn) [Compound 34, 4-[1-(4-Methylphenyl)-1H-pyrazolo[3,4-c]pyridin-3-yl]-2-(morpholin-4-ylmethyl)morpholine] was tested. Which pIC50 did it give?
Answer: Its pIC50 is 6.30 to 7.00.

Question: How did the pIC50 turn out when `Clc1ccc(-n2nc(N3CCC(CNCC4CCNCC4)CC3)c3ccncc32)cc1` [Compound 50, ({1-[1-(4-Chlorophenyl)-1H-pyrazolo[3,4-c]pyridin-3-yl]piperidin-4-yl}methyl)(piperidin-4-ylmethyl)amine] was run?
Answer: The pIC50 was 6.30 to 7.00.

Question: With `O=C1NCCN1CCNc1nn(-c2ccc(Cl)cc2)c2cnccc12` [Compound 64, 1-(2-{[1-(4-Chlorophenyl)-1H-pyrazolo[3,4-c]pyridin-3-yl]amino}ethyl)imidazolidin-2-one] as the compound, how does the pIC50 read?
Answer: The pIC50 was > 7.00.

Question: How did the pIC50 turn out when `Clc1ccc(-n2cc(C3CCN(C4CCNCC4)CC3)c3ccncc32)cc1` [Compound 2, 4-[1-(4-Chlorophenyl)-1H-pyrrolo[2,3-c]pyridin-3-yl]-1-(piperidin-4-yl)piperidine] was run?
Answer: Its pIC50 is 6.30 to 7.00.

Question: How did the pIC50 turn out when `CN1CCN(CCNc2nn(-c3ccc(Cl)cc3)c3cnccc23)CC1` [Compound 46, 1-(4-Chlorophenyl)-N-[2-(4-methylpiperazin-1-yl)ethyl]-1H-pyrazolo[3,4-c]pyridin-3-amine] was run?
Answer: The pIC50 was 6.30 to 7.00.

Question: `CN1CCN(CCC2COCCN2c2nn(-c3ccc(Cl)cc3)c3cnccc23)CC1` (stereo not drawn) [Compound 42, 4-[1-(4-Chlorophenyl)-1H-pyrazolo[3,4-c]pyridin-3-yl]-3-[2-(4-methylpiperazin-1-yl)ethyl]morpholine] was tested. Which pIC50 did it give?
Answer: The pIC50 was > 7.00.

Question: How did the pIC50 turn out when `CN1CCC(CN(C)C(=O)N2CCC(c3cn(-c4ccc(Cl)cc4)c4cnccc34)CC2)CC1` [Compound 13, 4-[1-(4-Chlorophenyl)-1H-pyrrolo[2,3-c]pyridin-3-yl]-N-methyl-N-[(1-methylpiperidin-4-yl)methyl] piperidine-1-carboxamide; formic acid] was run?
Answer: The pIC50 was > 7.00.

Question: How did the pIC50 turn out when `CC(=O)N1CCC(NC(=O)N2CCC(c3cn(-c4ccc(Cl)cc4)c4cnccc34)CC2)CC1` [Compound 10, N-(1-Acetylpiperidin-4-yl)-4-[1-(4-chlorophenyl)-1H-pyrrolo [2,3-c]pyridin-3-yl]piperidine-1-carboxamide] was run?
Answer: Its pIC50 is > 7.00.

Question: `CC(C)[C@H]1CN(C(=O)N2CCC(c3cn(-c4ccc(Cl)cc4)c4cnccc34)CC2)CCN1` [Compound 19, (3S)-1-({4-[1-(4-Chlorophenyl)-1H-pyrrolo[2,3-c]pyridin-3-yl]piperidin-1-yl}carbonyl)-3-(propan-2-yl) piperazine] was tested. Which pIC50 did it give?
Answer: Its pIC50 is > 7.00.

Question: How did the pIC50 turn out when `CN1CCC(CNC(=O)CC2COCCN2c2nn(-c3ccc(Cl)cc3)c3cnccc23)CC1` (stereo not drawn) [Compound 58, 2-{4-[1-(4-Chlorophenyl)-1H-pyrazolo[3,4-c]pyridin-3-yl]morpholin-3-yl}-N-[(1-methylpiperidin-4-yl)methyl] acetamide] was run?
Answer: The pIC50 was 6.30 to 7.00.

Question: With `O=C(NC1CCNCC1)N1CCC(c2cn(-c3ccc(Cl)cc3)c3cnccc23)CC1` [Compound 7, 4-[1-(4-Chlorophenyl)-1H-pyrrolo[2,3-c]pyridin-3-yl]-N-(piperidin-4-yl) piperidine-1-carboxamide] as the compound, how does the pIC50 read?
Answer: Its pIC50 is > 7.00.

Question: How did the pIC50 turn out when `CN(C)[C@H]1CCN(C(=O)CC2COCCN2c2nn(-c3ccc(Cl)cc3)c3cnccc23)C1` (stereo partly drawn) [Compound 56, 2-{4-[1-(4-Chlorophenyl)-1H-pyrazolo[3,4-c]pyridin-3-yl]morpholin-3-yl}-1-[(3S)-3-(dimethylamino)pyrrolidin-1-yl] ethan-1-one] was run?
Answer: The pIC50 was > 7.00.

Question: `CN1CCN(CC2CN(c3nn(-c4ccc(Cl)cc4)c4cnccc34)CCO2)CC1` (stereo not drawn) [Compound 35, 4-[1-(4-Chlorophenyl)-1H-pyrazolo[3,4-c]pyridin-3-yl]-2-[(4-methylpiperazin-1-yl)methyl]morpholine] was tested. Which pIC50 did it give?
Answer: Its pIC50 is 6.30 to 7.00.

Question: `CC(C)N1CCC(CNC(=O)N2CCC(c3cn(-c4ccc(Cl)cc4)c4cnccc34)CC2)CC1` [Compound 27, 4-[1-(4-Chlorophenyl)-1H-pyrrolo[2,3-c]pyridin-3-yl]-N-{[1-(propan-2-yl)piperidin-4-yl]methyl}piperidine-1-carboxamide; formic acid] was tested. Which pIC50 did it give?
Answer: The pIC50 was > 7.00.

Question: `CN1CCC(NC(=O)CC2COCCN2c2nn(-c3ccc(Cl)cc3)c3cnccc23)CC1` (stereo not drawn) [Compound 57, 2-{4-[1-(4-Chlorophenyl)-1H-pyrazolo[3,4-c]pyridin-3-yl]morpholin-3-yl)-N-(1-methylpiperidin-4-yl)acetamide] was tested. Which pIC50 did it give?
Answer: The pIC50 was 6.30 to 7.00.
